Source: ChEMBL document CHEMBL3046925, “,-Dibromoacetophenones mediated synthesis of some new 7H-7-alkoxy-3-alkyl/phenyl-6-aryl-s-triazolo[3,4-b][1,3,4]thiadiazines and their antimicrobial evaluation” (2012)
Converted amounts (≈) assume the structure as drawn. The source made the active and inactive calls. The calls are words filed in the database; no cut-off is given here.

Experiments:
Saccharomyces cerevisiae [1] = experiment: Antimicrobial activity against Saccharomyces cerevisiae MTCC 170 after 24 hr by two-fold serial dilution method; type: functional; conditions: MTCC 170, 24 h
Candida albicans [2] = experiment: Antimicrobial activity against Candida albicans MTCC 227 at 2 mg/ml by two-fold serial dilution method; type: functional
Candida albicans [3] = experiment: Antimicrobial activity against Candida albicans MTCC 227 at 2 mg/ml by agar well diffusion method; type: functional; conditions: read-out: DIZ
Saccharomyces cerevisiae [4] = experiment: Antimicrobial activity against Saccharomyces cerevisiae MTCC 170 at 2 mg/ml after 24 hr by agar well diffusion method; type: functional; conditions: MTCC 170, 24 h, read-out: DIZ
Pseudomonas aeruginosa = experiment: Antimicrobial activity against Pseudomonas aeruginosa MTCC 741 at 2 mg/ml after 24 hr by agar well diffusion method; type: functional, organism-based
Escherichia coli = experiment: Antimicrobial activity against Escherichia coli MTCC 1652 at 2 mg/ml after 24 hr by agar well diffusion method; type: functional, organism-based
Bacillus subtilis [5] = conditions: MTCC 121
Description: Antimicrobial activity against Bacillus subtilis MTCC 121 at 2 mg/ml after 24 hr by two-fold serial dilution method

Staphylococcus aureus [6] = conditions: MTCC 96
Description: Antimicrobial activity against Staphylococcus aureus MTCC 96 after 24 hr by two-fold serial dilution method

Staphylococcus aureus [7] = conditions: MTCC 96; remark: listed apart in the source
Description: Antimicrobial activity against Staphylococcus aureus MTCC 96 at 2 mg/ml after 24 hr by agar well diffusion method

Bacillus subtilis [8] = conditions: MTCC 121; remark: listed apart in the source
Description: Antimicrobial activity against Bacillus subtilis MTCC 121 at 2 mg/ml after 24 hr by agar well diffusion method

`CCOC1Sc2nnc(CC)n2N=C1c1ccc(Cl)cc1` (stereo not given) gave an MIC (Saccharomyces cerevisiae [1]) of 32 µg/mL (≈ 99.1 µM), an MIC (Candida albicans [2]) of 64 µg/mL (≈ 198 µM) and a zone of inhibition at 2000 µg/mL (Candida albicans [3]) of 15.6 mm. The zone of inhibition at 2000 µg/mL (Saccharomyces cerevisiae [4]) was 18.3 mm, the Activity (Pseudomonas aeruginosa) was “inactive” and the Activity (Escherichia coli) was “inactive”. The MIC (Bacillus subtilis [5]) was “inactive”, the MIC (Staphylococcus aureus [6]) was “inactive” and the DIZ (Staphylococcus aureus [7]) was “inactive”. The DIZ (Bacillus subtilis [8]) was “inactive”.
